Reference: patent publication US8536136B2, “Inhibitors of serine proteases, particularly HCV NS3-NS4A protease” (Vertex Pharmaceuticals Incorporated, priority 2004, dated 2013)

target: HCV NS3-NS4A protease (tNS3 with KK4A) (Hepatitis C virus genotype 1a, UniProt P27958); test: HCV Ki Assay (HPLC microbore separation of 5AB substrate and products); type: biochemical; details: 25 nM tNS3, 25 μM KK4A, 25 μM 5AB substrate, 20 min at 30 C
Protocol: HPLC Microbore Method for Separation of 5AB Substrate and Products
NH2-Glu-Asp-Val-Val-(alpha)Abu-Cys-Ser-Met-Ser-Tyr-COOH
A stock solution of 20 mM 5AB (or concentration of your choice) was made in DMSO w/0.2M DTT. This was stored in aliquots at −20 C.
Buffer: 50 mM HEPES, pH 7.8; 20% glycerol; 100 mM NaCl
Total assay volume was 100 μL
The buffer, KK4A, DTT, and tNS3 were combined; distributed 78 μL each into wells of 96 well plate. This was incubated at 30 C for ˜5-10 min.
2.5 μL of appropriate concentration of test compound was dissolved in DMSO (DMSO only for control) and added to each well. This was incubated at room temperature for 15 min.
Initiated reaction by addition of 20 μL of 250 μM 5AB substrate (25 μM concentration is equivalent or slightly lower than the Km for 5AB).
Incubated for 20 min at 30 C.
Terminated reaction by addition of 25 μL of 10% TFA
Transferred 120 μL aliquots to HPLC vials
Separated SMSY product from substrate and KK4A by the following method:
Microbore Separation Method:
Stop time: 17 min Post-run time: 10 min.

Sequence of HCV NS3-NS4A protease (tNS3 with KK4A) (P27958 1027-1208): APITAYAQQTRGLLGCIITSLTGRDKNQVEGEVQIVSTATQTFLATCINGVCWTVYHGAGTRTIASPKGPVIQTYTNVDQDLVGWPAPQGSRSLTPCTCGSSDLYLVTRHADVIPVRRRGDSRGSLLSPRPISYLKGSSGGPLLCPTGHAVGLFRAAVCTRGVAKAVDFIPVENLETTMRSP
Sequence of HCV NS3-NS4A protease (tNS3 with KK4A) (P27958 1658-1711): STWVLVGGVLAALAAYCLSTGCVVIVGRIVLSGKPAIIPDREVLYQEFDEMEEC

| SMILES | Ki [nM] |
| --- | --- |
| CCC[C@H](NC(=O)[C@@H]1C[C@@H]2CCCC[C@@H]2N1C(=O)[C@@H](NC(=O)[C@@H](NC(=O)c1cnccn1)C1CCCCC1)C(C)(C)C)C(=O)C(=O)NOCc1ccccc1 [Compound 3, 1-(2-{2-Cyclohexyl-2-[(pyrazine-2-carbonyl)-amino]-acetylamino}-3,3-dimethyl-butyryl)-octahydro-indole-2-carboxylic acid (1-benzyloxyaminooxalyl-butyl)-amide] | 1500 to 3000 |
| CCC[C@H](NC(=O)[C@@H]1C[C@@H]2CCCC[C@@H]2N1C(=O)[C@@H](NC(=O)[C@@H](NC(=O)c1cnccn1)C1CCCCC1)C(C)(C)C)C(=O)C(=O)NN(C)c1ccccc1 [Compound 6, 1-(2-{2-Cyclohexyl-2-[(pyrazine-2-carbonyl)-amino]-acetylamino}-3,3-dimethyl-butyryl)-octahydro-indole-2-carboxylic acid [1-(N′-methyl-N′-phenyl-hydrazinooxalyl)-butyl]-amide] | < 1500 |
| CCC[C@H](NC(=O)[C@@H]1C[C@@H]2CCCC[C@@H]2N1C(=O)[C@@H](NC(=O)[C@@H](NC(=O)c1cnccn1)C1CCCCC1)C(C)(C)C)C(=O)C(=O)NOC(C)(C)C [Compound 2, 1-(2-{2-Cyclohexyl-2-[(pyrazine-2-carbonyl)-amino]-acetylamino}-3,3-dimethyl-butyryl)-octahydro-indole-2-carboxylic acid (1-tert-butoxyaminooxalyl-butyl)-amide] | < 1500 |
| CCC[C@H](NC(=O)[C@@H]1C[C@@H]2CCCC[C@@H]2N1C(=O)[C@@H](NC(=O)[C@@H](NC(=O)c1cnccn1)C1CCCCC1)C(C)(C)C)C(=O)C(=O)NOCC(C)C [Compound 1, 1-(2-{2-Cyclohexyl-2-[(pyrazine-2-carbonyl)-amino]-acetylamino}-3,3-dimethyl-butyryl)-octahydro-indole-2-carboxylic acid (1-isobutoxyaminooxalyl-butyl)-amide] | < 1500 |
| CCC[C@H](NC(=O)[C@@H]1C[C@@H]2CCCC[C@@H]2N1C(=O)[C@@H](NC(=O)[C@@H](NC(=O)c1cnccn1)C1CCCCC1)C(C)(C)C)C(=O)C(=O)NN1CCOCC1 [Compound 7] | > 3000 |
| CCC[C@H](NC(=O)[C@@H]1C[C@@H]2CCCC[C@@H]2N1C(=O)[C@@H](NC(=O)[C@@H](NC(=O)c1cnccn1)C1CCCCC1)C(C)(C)C)C(=O)C(=O)NOc1ccccc1 [Compound 5, 1-(2-{2-Cyclohexyl-2-[(pyrazine-2-carbonyl)-amino]-acetylamino}-3,3-dimethyl-butyryl)-octahydro-indole-2-carboxylic acid (1-phenoxyaminooxalyl-butyl)-amide] | 1500 to 3000 |
| C=CCONC(=O)C(=O)[C@H](CCC)NC(=O)[C@@H]1C[C@@H]2CCCC[C@@H]2N1C(=O)[C@@H](NC(=O)[C@@H](NC(=O)c1cnccn1)C1CCCCC1)C(C)(C)C [Compound 4, 1-(2-{2-Cyclohexyl-2-[(pyrazine-2-carbonyl)-amino]-acetylamino}-3,3-dimethyl-butyryl)-octahydro-indole-2-carboxylic acid (1-allyloxyaminooxalyl-butyl)-amide] | > 3000 |
| CCC[C@H](NC(=O)[C@@H]1C[C@@H]2CCCC[C@@H]2N1C(=O)[C@@H](NC(=O)[C@@H](NC(=O)c1cnccn1)C1CCCCC1)C(C)(C)C)C(=O)C(=O)NN(Cc1ccccc1)Cc1ccccc1 [Compound 8] | > 3000 |
